The record followed here is US20170166592A1, “AZA-BENZIMIDAZOLE INHIBITORS OF PAD4” (Padlock Therapeutics, Inc., priority 2015, published 2017).

Each structure is given as a SMILES string. Like-named read-outs stand apart in the source and are kept apart here. A value given as a limit tells only on which side of the number the result lay.

The target of one assay is mPAD4 (Mus musculus, UniProt Q9Z183). Nature of the assay: PAD4 inhibition assay, RapidFire mass spectrometry (mPAD4 RFMS). The class given is biochemical.
The target in another assay is hPAD4 (Homo sapiens, UniProt Q9UM07). In words: PAD4 inhibition assay, RapidFire mass spectrometry (hPAD4 RFMS). It is filed as biochemical. As for the experimental part:
Compounds of the present invention were assayed as inhibitors of PAD4 using the assay protocol described below.
Compounds were solubilised in 100% DMSO to achieve 100 mM final compound concentration. Compound stock solutions were stored at RT. A series of dilutions were prepared in DMSO and mixed 8 times with 20 μL, mixing volume. Final assay conditions were as follows:
Assay buffer (as aforementioned): 100 mM Tris-HCl (pH 7.6), 2 mM DTT, 1 mM CaCl2
Final concentrations: • 100 nM hPAD4 enzyme • 50 μM (8-fold sub-Km) substrate peptide • 0.5% DMSO
Total incubation time: 65 mins at 37° C.
Stop solution: 40 μl 5% TCA in ACN
0.25 μL of compound solution was added to 10 μL of 200 nM PAD4 in assay buffer (100 mM Tris-HCl pH 7.6, 2 mM DTT). After 5 mins, 10 μL of 100 μM of substrate in buffer (100 mM Tris-HCl pH 7.6, 2 mM DTT, 2 mM CaCl2) was added and the reaction incubated for 60 mins at 37 ° C. The enzymatic reaction was quenched by addition of 40 μl of 5% TCA in ACN (1.7% TCA final concentration) stop solution. Arginine containing substrate and citrulline containing product (+1 Da mass shift) were subjected to solid phase extraction on Agilent RapidFire (RF) 300 system and detected on a coupled, triple quadrupole Agilent 6460 QQQ mass spectrometry (MS) device under application of multiple reaction monitoring (MRM) for quantitation.

Setting [1] is: pIC50=-log(IC50), read-out: mPAD4 RFMS pIC50 (converted).
[2] abbreviates: 100 nM hPAD4 enzyme, 50 μM substrate peptide, 65 mins at 37° C., read-out: hPAD4 RFMS IC50.
[3] abbreviates: pIC50=-log(IC50), read-out: hPAD4 RFMS pIC50 (converted).

Sequence of hPAD4 (Q9UM07 whole entry): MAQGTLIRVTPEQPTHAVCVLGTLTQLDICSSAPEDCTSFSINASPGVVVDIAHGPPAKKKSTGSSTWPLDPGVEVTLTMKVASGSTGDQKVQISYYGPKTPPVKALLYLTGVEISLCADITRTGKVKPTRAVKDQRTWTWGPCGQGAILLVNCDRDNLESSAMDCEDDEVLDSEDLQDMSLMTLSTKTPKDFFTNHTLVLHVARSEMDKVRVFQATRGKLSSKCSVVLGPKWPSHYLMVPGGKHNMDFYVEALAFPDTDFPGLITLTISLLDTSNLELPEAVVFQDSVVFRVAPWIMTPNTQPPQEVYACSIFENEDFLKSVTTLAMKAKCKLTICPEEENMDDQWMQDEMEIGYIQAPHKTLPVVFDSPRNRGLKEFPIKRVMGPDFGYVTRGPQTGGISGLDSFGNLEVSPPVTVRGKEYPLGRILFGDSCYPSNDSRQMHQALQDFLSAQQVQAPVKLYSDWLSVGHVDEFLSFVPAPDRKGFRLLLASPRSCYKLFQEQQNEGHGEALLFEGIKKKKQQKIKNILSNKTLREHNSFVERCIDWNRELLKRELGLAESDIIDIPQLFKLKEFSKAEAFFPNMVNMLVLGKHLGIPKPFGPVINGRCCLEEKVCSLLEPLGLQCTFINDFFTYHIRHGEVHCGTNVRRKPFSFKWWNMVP
Sequence of mPAD4 (Q9Z183 whole entry): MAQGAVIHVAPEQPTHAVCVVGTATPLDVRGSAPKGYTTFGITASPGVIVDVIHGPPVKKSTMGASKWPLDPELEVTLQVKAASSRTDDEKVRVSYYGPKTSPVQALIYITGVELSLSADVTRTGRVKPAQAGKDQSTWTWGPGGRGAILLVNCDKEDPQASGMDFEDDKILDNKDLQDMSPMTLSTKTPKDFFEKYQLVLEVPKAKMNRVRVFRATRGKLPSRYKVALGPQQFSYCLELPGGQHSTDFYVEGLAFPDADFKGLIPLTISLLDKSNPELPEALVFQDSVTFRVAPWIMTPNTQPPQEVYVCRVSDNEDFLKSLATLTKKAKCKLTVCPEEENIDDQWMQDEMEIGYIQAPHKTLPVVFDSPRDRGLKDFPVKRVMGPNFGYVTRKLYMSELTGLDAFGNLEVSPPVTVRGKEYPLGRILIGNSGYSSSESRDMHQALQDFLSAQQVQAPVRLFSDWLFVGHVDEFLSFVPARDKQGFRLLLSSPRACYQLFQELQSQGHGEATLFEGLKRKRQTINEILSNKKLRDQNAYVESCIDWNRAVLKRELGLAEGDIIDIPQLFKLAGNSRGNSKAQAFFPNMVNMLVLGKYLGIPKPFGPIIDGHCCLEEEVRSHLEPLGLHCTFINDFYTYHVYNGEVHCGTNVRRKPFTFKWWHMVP

As for `COCCn1c(-c2cc3cccnc3n2CC2CC2)nc2cc(C(=O)N3C[C@H]4CC[C@@H]3[C@@H]4N)cnc21` [Compound I-45], the IC50 was 1000 to 10000 nM on mPAD4 (setting [1]), 1000 to 5000 nM at mPAD4 (read-out: mPAD4 RFMS IC50), at most 1000 nM on hPAD4 (setting [2]) and at most 1000 nM at hPAD4 (setting [3]).

As for `CCn1c(-c2nc3cc(C(=O)N4C[C@H]5CC[C@@H]4[C@@H]5N)cnc3n2C)cc2cccnc21` [Compound I-39], the IC50 at mPAD4 (setting [1]) was 1000 to 10000 nM; on mPAD4 (read-out: mPAD4 RFMS IC50), 1000 to 5000 nM; on hPAD4 (setting [2]), 1000 to 5000 nM; on hPAD4 (setting [3]), 1000 to 10000 nM.

`CCn1c(-c2nc3cc(C(=O)N4C[C@H]5CC[C@@H]4[C@@H]5N)cnc3n2C)cc2ccc(OC)nc21` [Compound I-37]: the IC50 at mPAD4 (setting [1]), at mPAD4 (read-out: mPAD4 RFMS IC50), at hPAD4 (setting [2]) and on hPAD4 (setting [3]) was at most 1000 nM each time.

`N[C@@H]1CCCN(C(=O)c2cnc3c(c2)nc(-c2cc4cccnc4n2CC2CC2)n3CC(F)F)C1` [Compound I-12]: the IC50 is 1000 to 10000 nM on mPAD4 (setting [1]), 1000 to 5000 nM on mPAD4 (read-out: mPAD4 RFMS IC50), 1000 to 5000 nM at hPAD4 (setting [2]) and 1000 to 10000 nM on hPAD4 (setting [3]).

`Cn1c(-c2cc3cc(F)c(F)nc3n2CC2CC2)nc2cc(C(=O)N3CCC[C@@H](N)C3)cnc21` [Compound I-14]: the IC50 is at most 1000 nM on mPAD4 (setting [1]), at most 1000 nM on mPAD4 (read-out: mPAD4 RFMS IC50), 1000 to 5000 nM at hPAD4 (setting [2]) and 1000 to 10000 nM at hPAD4 (setting [3]).
